# Test system: NCI-H211 tumor spheroids, viability percent test/control
# Test: Anticancer human tumor NCI-H211 cell line growth inhibition;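 further: spheroids exposed to agents for seven days before readout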
# Settings: spheroids with HUVEC and MSC; for IC50: curve of first compound; for viability, T/C: stronger effect = lower value
# In short: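 Complex spheroids of malignant cells with endothelial cells and mesenchymal stem cells; agents alone or combined, from near clinical Cmax (or 10 microM if unknown) down in half-log steps, 0.25% DMSO final.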
# [1] = second compound 1 µM, first compound 0.0316 µM
# [2] = second compound 1 µM, first compound 0.1 µM
# [3] = second compound 1 µM, first compound 0.316 µM
# [4] = second compound 1 µM, first compound 1 µM
# [5] = second compound 1 µM, first compound 3.16 µM
# [6] = second compound 1 µM, first compound 10 µM
# [7] = second compound 3.16 µM, first compound 0.0316 µM
# [8] = second compound 3.16 µM, first compound 0.1 µM
# [9] = second compound 3.16 µM, first compound 0.316 µM
# [10] = second compound 3.16 µM, first compound 1 µM
# [11] = second compound 3.16 µM, first compound 3.16 µM
# [12] = second compound 3.16 µM, first compound 10 µM
# [13] = second compound 10 µM, first compound 0.0316 µM
# [14] = second compound 10 µM, first compound 0.1 µM
# [15] = second compound 10 µM, first compound 0.316 µM
# [16] = second compound 10 µM, first compound 1 µM
# [17] = second compound 10 µM, first compound 3.16 µM
# [18] = second compound 10 µM, first compound 10 µM
# [19] = second compound 31.6 µM, first compound 0.0316 µM
# [20] = second compound 31.6 µM, first compound 0.1 µM
# [21] = second compound 31.6 µM, first compound 0.316 µM
# [22] = second compound 31.6 µM, first compound 1 µM
# [23] = second compound 31.6 µM, first compound 3.16 µM
# [24] = second compound 31.6 µM, first compound 10 µM
# [25] = second compound 100 µM, first compound 0.0316 µM
# [26] = second compound 100 µM, first compound 0.1 µM
# [27] = second compound 100 µM, first compound 0.316 µM
# [28] = second compound 100 µM, first compound 1 µM
# [29] = second compound 100 µM, first compound 3.16 µM
# [30] = second compound 100 µM, first compound 10 µM
SMILES,IC50 (second compound 1 µM) [nM],IC50 (second compound 3.16 µM) [nM],IC50 (second compound 10 µM) [nM],IC50 (second compound 31.6 µM) [nM],IC50 (second compound 100 µM) [nM],"viability, T/C [1] [%]","viability, T/C [2] [%]","viability, T/C [3] [%]","viability, T/C [4] [%]","viability, T/C [5] [%]","viability, T/C [6] [%]","viability, T/C [7] [%]","viability, T/C [8] [%]","viability, T/C [9] [%]","viability, T/C [10] [%]","viability, T/C [11] [%]","viability, T/C [12] [%]","viability, T/C [13] [%]","viability, T/C [14] [%]","viability, T/C [15] [%]",other results
CC(C)n1c(=O)n(C)c2cnc3cc(F)c(-c4ccc(OCCCN5CCCCC5)nc4)cc3c21 + Cn1nnc2c(C(N)=O)ncn2c1=O,662,781,118,< 31.6,< 31.6,70.8,69.4,54,48.1,28.4,9.99,66,66.1,63.8,42.6,30.7,8.69,61.6,52.2,35.7,"viability, T/C [16]: 34.7%; viability, T/C [17]: 20.3%; viability, T/C [18]: 4.95%; viability, T/C [19]: 19.9%; viability, T/C [20]: 16.5%; viability, T/C [21]: 10.7%; viability, T/C [22]: 8.57%; viability, T/C [23]: 5.7%; viability, T/C [24]: 0.75%; viability, T/C [25]: 4.09%; viability, T/C [26]: 3.62%; viability, T/C [27]: 2.44%; viability, T/C [28]: 1.96%; viability, T/C [29]: 1.15%; viability, T/C [30]: 0.49%"
CC1COCCN1c1cc(-c2ccnn2C)c2ccnc(-c3ccn[nH]3)c2n1 (stereo not given) + Cn1nnc2c(C(N)=O)ncn2c1=O,< 31.6,< 31.6,< 31.6,< 31.6,< 31.6,11.4,1.45,0.83,0.74,0.72,1.43,9.67,1.34,0.86,0.68,0.72,1.44,6.59,0.88,0.79,"viability, T/C [16]: 0.62%; viability, T/C [17]: 0.67%; viability, T/C [18]: 1.16%; viability, T/C [19]: 1.39%; viability, T/C [20]: 1.09%; viability, T/C [21]: 0.74%; viability, T/C [22]: 0.59%; viability, T/C [23]: 0.66%; viability, T/C [24]: 1.11%; viability, T/C [25]: 1.19%; viability, T/C [26]: 1.1%; viability, T/C [27]: 0.95%; viability, T/C [28]: 0.67%; viability, T/C [29]: 0.65%; viability, T/C [30]: 1.12%"
COc1cc(C)[nH]c(=O)c1CN1CCc2c(Cl)cc(C(OC)C3COC3)c(Cl)c2C1=O (stereo not given) + Cn1nnc2c(C(N)=O)ncn2c1=O,> 10000,> 10000,> 10000,1330,< 31.6,92.7,90.4,90.6,82.7,81.3,72.8,92.6,99.3,90,82.3,70.2,81.5,99.8,98.7,86.6,"viability, T/C [16]: 86.5%; viability, T/C [17]: 70.2%; viability, T/C [18]: 56.1%; viability, T/C [19]: 56.4%; viability, T/C [20]: 54.6%; viability, T/C [21]: 59.6%; viability, T/C [22]: 56.3%; viability, T/C [23]: 30.8%; viability, T/C [24]: 30.8%; viability, T/C [25]: 31.5%; viability, T/C [26]: 33.4%; viability, T/C [27]: 19.6%; viability, T/C [28]: 13.8%; viability, T/C [29]: 12.6%; viability, T/C [30]: 12%"
COc1ccc([C@@H](O)c2cc(-c3ncnc4cc(N5CCOCC5)ccc34)c(F)cc2Cl)nn1 + Cn1nnc2c(C(N)=O)ncn2c1=O,6280,5810,3890,< 31.6,< 31.6,102,102,90.3,74.5,85.3,31.5,88.9,100,105,69.4,73.2,33.3,99,88.6,84,"viability, T/C [16]: 71.9%; viability, T/C [17]: 60.7%; viability, T/C [18]: 21.7%; viability, T/C [19]: 41.1%; viability, T/C [20]: 38.5%; viability, T/C [21]: 35.1%; viability, T/C [22]: 34.6%; viability, T/C [23]: 21.1%; viability, T/C [24]: 7.82%; viability, T/C [25]: 21.6%; viability, T/C [26]: 19.3%; viability, T/C [27]: 15.9%; viability, T/C [28]: 8.08%; viability, T/C [29]: 5.69%; viability, T/C [30]: 2.16%"
